Three molecules from publication PMC7617869, “Molecular glues that inhibit deubiquitylase activity and inflammatory signaling” (Nature Structural & Molecular Biology, 2025) can be followed below.

Holding throughout (format): cell-based, human
In test [1] the test system is ISG expression in MCF10A Cas9 cells expressing BRCC45 WT. Kind of test: MCF10A BRCC45 WT ISG expression (RT–qPCR). Set-up: scale not given here. Conditions: BRCC45 KO+ BRCC45 WT; replicate values. The method, then: Supplementary Protocols 1. Experimental procedures for cell biology experiments. […]
Media supplements including human insulin solution (Santa Cruz Biotechnology, #sc-360248), cholera toxin from vibrio (Sigma Aldrich, #C8052-2MG), recombinant human EGF (PeproTech, #AF-100-15-100µg), hydrocortisone (Sigma-Aldrich, #H-0888) were used to grow MCF10A cells. The 4–12% Bis-Tris SDS-PAGE gels, cell culture media, horse serum and other materials for tissue culture were purchased from Invitrogen. LipoD293 (SigmaGen, #SL100668) was used for all the transfections to generate knock out cell lines.
Immortalised breast epithelial cell line MCF10A were cultured in 10 cm plates with Dulbecco’s Modified Eagle Medium (DMEM) + F-12 (1:1) supplemented with 5% horse serum, 100 ng/mL cholera toxin, 10 […]
Real-time quantitative PCR
1x10^5 MCF10A cells were cultured as described above and seeded into 6 well plates. Cells were left to reach ultra-confluence. Once confluent, cells were washed with PBS and starved for 30 minutes in 2 mL DMEM + F-12 (1:1) supplemented with 1% horse serum. After 30 minutes cells were pre-treated with either DMSO (0.1%) (Control and IFN only) or BRISC inhibitor (2.5 µM) for 15 minutes. After 15 minutes, hIFN2α (75 ng/mL) was added to the media and mixed. Cells were treated for 4 hours. Cells were washed with ice cold PBS and scraped with cell scrapers into 350 µL RNAlater buffer and RNA […]
#79254). Isolated RNA was quantified using a Nanodrop spectrophotometer. RNA was converted into cDNA and the complementary DNA was used for real-time quantitative PCR analysis of expression of interferon stimulated genes (ISG15, IFIT1, IFIT2, IFITM1, CXCL10 and RNA18S) using an Applied Biosystems Quantstudio 6 RT-PCR system. All experiments were carried out in triplicate.
(Quantitative PCR measures a nucleic acid by following its amplification.)

Test [2] deals with NF-κB pathway in THP-1 cells. The test can be described thus: THP-1 NF-κB pathway SEAP reporter, lipopolysaccharide stimulation. Conditions: LPS + compound, three replicates. As for the experimental part:
THP-1 in vitro experiments
THP-1-DualTM cells (InvivoGen), derived from a human monocytic cell line, isolated from a patient with acute monocytic leukaemia, were cultured as per manufacturer’s guidance. Cells were seeded at 1x10^6 cells/mL in RPMI1640 media containing 10% fetal bovine serum (FBS), 1% penicillin-streptomycin (PS) (Gibco Laboratories) with DMSO (0.1%) (control) or in media containing JMS-175- […]
ng/mL) (Merck Life Science), ODN 2216 (1 µM) (Miltenyi Biotec), or Poly:IC (1 µg/mL) (InvivoGen).
Tofacitinib (Cambridge Biosciences) at 0.4 µM was used for comparison against a known JAK inhibitor.
Cells were centrifuged at 300 g for 5 minutes. Supernatant was removed and subjected to simultaneous study of the NF -κB pathway, by monitoring the activity of secreted alkaline phosphatase reporter (SEAP), and the IRF pathway, by assessing the activity o f a secreted Lucia luciferase using QUANTI - Blue ™ Solution and QUANTI -Luc™ 4 Lucia/Gaussia (InvivoGen), respectively, as per manufacturer’s instructions. Pelleted cells were used for FACS analysis using IFNα/β R1 APC-conjugated antibody or isotype control (Biotechne, FAB245A and IC002A), or unstained staining procedure with and without Zombie GreenTM (Biolegend). Samples were analysed using CytoFlex LX (Beckman) (50,000 live cells per condition). Median fluorescence intensity for APC channel gated on single cell live cells was analysed and compared as a percentage to control (no stimulation condition). […]

In test [3] the test system is composite ISG score in SSc PBMCs. The test can be described thus: SSc PBMC composite ISG score (CXCL10, IFIT1, ISG15, MX1). As to conditions: for CXCL10 / IFIT1 / ISG15 / MX1: sheet Ext. 9e, SSc PBMCs, 20 values per compound (one per patient sample); for composite ISG score: unstimulated SSc PBMCs (n = 20), 2 µM, 16 h, relative to AP-5-145. The method, then:
PBMCs in vitro experiments
Peripheral blood mononuclear cells (PBMCs) from healthy and SSc donors were separated using density gradient method (Leucosep™, Greiner Bio-One International) from EDTA anticoagulated peripheral blood; isolated cells were washed twice by PBS. PBMCs were then incubated in RPMI1640 […]
For healthy PBMCs, cells were stimulated with 20 ng/mL of IFN (+/- compounds or DMSO). For SSc PBMCs, cells were in basal conditions with no additional IFN stimulation. Cells were centrifuged at 300 g for 10 minutes. […]
RNA was extracted from cell pellets using TRIzol™ (ThermoFisher
Scientific, Waltham, MA) and processed using Quick-RNA Miniprep Kit (Zymo Research) as per the manufacturer’s instruction.
For Type I IFN signalling analysis, the human IFN I RT2 Profiler PCR Array (Qiagen, PAMM-016ZE) was performed on available RNA from healthy (n=3) and SSc (n=9) donors. RNA was converted to cDNA using RT2 First Strand Kit (Qiagen). Next, the cDNA was mixed with RT2 SYBR Green Mastermix (Qiagen, Venlo). Successful PCR performance was confirmed by assay tests for genomic DNA contamination, RNA sample quality, as well as single melt curve determination and <35 Ct for each gene, leading to validated gene expression of 67 genes. Relative expression for each gene was determined, firstly by ∆CT calculated using the geometric mean of 4 housekeeping genes (ACTB, GAPDH, HPRT1, RPLP0), followed by 2^(-∆CT), and expressed as fold change to control, according to manufacturer’s guidance. IFN2α-induced ISGs in healthy donors were determined using a Student’s t-test (two-tail distribution and equal variances) on the triplicate fold change in 2^(-ΔCT) values between […]
donors). Heatmaps were generated using the “pheatmap” function in R (v4.0.2) and RStudio (v1.3.1093) applying row scaling to standardise the expression data across samples (R core team 2020.
R Foundation for Statistical Computing). The IFN2α inducible genes determined in healthy donors […]
171-C. To account for Type I IFN signalling heterogeneity across samples, the mean 2^(-∆CT) for each […]
relative gene expression, illustrated as a fold change and visualised in log2. The Type I IFN signalling array data for the patient samples is included in Source Data Figure 6, Extended Data Fig. 9.

SMILES strings stand for the structures. Values joined by “and” are separate entries in the source; they are usually repeats but may differ in a detail not shown here. Identical values can stand only once.

For the molecule `O=C(NC1CCNCC1)c1nn(C(=O)c2c(Cl)cccc2Cl)cc1NC(=O)c1c(Cl)cccc1Cl` [JMS-175-2], in test [1], the “ISG expression (Fig. 5b)” value was 0.5319 and 0.5863 and 0.5604 and 0.6288 and 0.7746; the “ISG expression (Fig. 5c)” value was 0.5095 and 0.5499 and 0.6199 and 0.6187 and 0.6726; the “ISG expression (Fig. 5e)” value was 0.6564 and 0.7321 and 0.7949 and 0.5784 and 0.6638; the “ISG expression (Fig. 5f)” value is 0.7407 and 0.6852 and 0.6633 and 0.7235 and 0.5173. Also, the “ISG expression (Fig. 5d)” value in test [1] is 0.4933 and 0.4932 and 0.5473 and 0.4528 and 0.6627. Moreover, the “NF-κB SEAP reporter signal” value in test [2] was 1.156 and 1.103 and 1.152. Further, in test [3], the CXCL10 is 0.2536 and 3.414 and 0.2313 and 0.3588 and 1.2272 and 0.4193 and 1.168 and 0.8338 and 0.6055 and 1.239 and 0.3406 and 0.08106 and 0.000123 and 0.3625 and 0.05611 and 0.1808 and 1.381 and 0.5771 and 0.5421 and 0.1347; the IFIT1 was 0.2366 and 1.382 and 0.8014 and 0.1818 and 0.6785 and 0.4193 and 1.168 and 0.7189 and 1.817 and 1.319 and 1.1 and 0.2301 and 0.1676 and 0.4861 and 0.2758 and 0.6203 and 0.8038 and 0.5004 and 0.169 and 0.3186; the ISG15 was 0.4563 and 0.8641 and 0.6274 and 0.4056 and 0.5557 and 0.616 and 1.197 and 0.8342 and 1.6 and 0.5253 and 1.319 and 0.4936 and 0.2916 and 0.7218 and 0.3961 and 0.8921 and 0.9105 and 0.5615 and 0.4313 and 0.6786; the MX1 was 0.223 and 0.8929 and 1.04 and 0.5006 and 0.9521 and 0.6554 and 1.256 and 0.9444 and 1.592 and 1.073 and 1.238 and 0.494 and 0.2991 and 0.4305 and 0.1662 and 0.4949 and 1.066 and 0.6875 and 0.4778 and 0.5729. The “composite ISG score” value in test [3] is “reduced the composite ISG score”.
In the case of `Cn1cc(NC(=O)c2c(Cl)cccc2Cl)c(C(=O)NC2CCN(C(=O)c3c(Cl)cccc3Cl)CC2)n1` [AP-5-145], in test [1], the “ISG expression (Fig. 5b)” value is 0.8808 and 1 and 0.9871 and 1.027 and 0.974; the “ISG expression (Fig. 5c)” value is 0.8403 and 0.921 and 1.057 and 1.089 and 1.101; the “ISG expression (Fig. 5e)” value is 0.7343 and 0.7561 and 0.8094 and 1.106 and 1.138; the “ISG expression (Fig. 5f)” value was 0.7564 and 0.7183 and 0.7628 and 1.249 and 0.9766. The “ISG expression (Fig. 5d)” value in test [1] is 1.013 and 1.064 and 1.1762 and 1.007 and 0.9192. For the same molecule, the “NF-κB SEAP reporter signal” value in test [2] is 1.142 and 1.08 and 1.107. Moreover, in test [3], the CXCL10 was 1.751 and 0.25 and 0.7382 and 0.8655 and 0.7967 and 0.4021 and 0.5617 and 1.22 and 0.6479 and 2.776 and 1.1866 and 0.5017 and 0.551 and 0.4363 and 0.9229 and 0.6553 and 1.25 and 0.7409 and 0.339 and 0.3688; the IFIT1 is 0.6337 and 0.5474 and 0.8263 and 0.6524 and 0.6203 and 0.9706 and 0.5382 and 1.166 and 0.8191 and 0.9287 and 1.423 and 0.5364 and 0.8639 and 0.4363 and 0.9229 and 1.253 and 1.322 and 1.329 and 0.8934 and 0.7188; the ISG15 is 1.377 and 0.6237 and 1.266 and 0.7354 and 0.9639 and 0.9802 and 0.5935 and 1.766 and 0.659 and 0.6409 and 0.6943 and 0.6974 and 1.099 and 0.4464 and 1.007 and 1.459 and 1.622 and 0.4684 and 1.547 and 1.209; the MX1 was 0.9424 and 0.9381 and 0.6518 and 0.8276 and 0.6072 and 1.137 and 0.7908 and 1.689 and 0.9753 and 0.9313 and 1.364 and 0.7737 and 0.8832 and 0.4676 and 0.7628 and 0.9541 and 1.254 and 0.9134 and 1.016 and 0.8618.
As to `O=C(NC1C2CNCC21)c1nn(C(=O)c2c(Cl)cccc2Cl)cc1NC(=O)c1c(Cl)cccc1Cl` (centres unmarked) [FX-171-C], in test [1], the “ISG expression (Fig. 5b)” value is 0.4458 and 0.5019 and 0.5077 and 0.4274 and 0.4977; the “ISG expression (Fig. 5c)” value was 0.4481 and 0.428 and 0.4516 and 0.3326 and 0.4475; the “ISG expression (Fig. 5e)” value is 0.653 and 0.6751 and 0.6387 and 0.3593 and 0.4619; the “ISG expression (Fig. 5f)” value was 0.6515 and 0.6181 and 0.6111 and 0.3694 and 0.504. Moreover, the “ISG expression (Fig. 5d)” value in test [1] was 0.3965 and 0.3703 and 0.3895 and 0.4078 and 0.5134. For the same molecule, the “NF-κB SEAP reporter signal” value in test [2] was 1.133 and 1.071 and 1.161. Also, in test [3], the CXCL10 was 1.514 and 0.251 and 1.066 and 0.167 and 0.5332 and 0.7533 and 1.612 and 0.6702 and 0.5368 and 1.6313 and 0.1436 and 0.6323 and 0.4166 and 0.1288 and 0.6936 and 0.646 and 0.6924 and 0.6022 and 0.5701 and 0.08999; the IFIT1 is 0.2868 and 0.437 and 1.363 and 0.3735 and 0.4257 and 0.6696 and 0.8252 and 0.3503 and 0.5958 and 0.5382 and 1.388 and 0.256 and 0.9671 and 0.1288 and 0.6936 and 1.317 and 1.359 and 0.9945 and 0.8122 and 0.05751; the ISG15 was 0.9038 and 0.4123 and 1.522 and 0.5454 and 1.252 and 0.967 and 0.791 and 0.6842 and 0.9244 and 0.2949 and 0.1516 and 1.006 and 0.9237 and 0.1709 and 0.7851 and 1.799 and 0.9132 and 0.323 and 0.9506 and 0.1287; the MX1 is 0.4428 and 0.9634 and 1.459 and 0.4711 and 0.7459 and 1.024 and 0.9419 and 0.919 and 0.9953 and 1.074 and 1.146 and 0.5685 and 0.9032 and 0.1777 and 0.6324 and 0.9421 and 1.363 and 0.7344 and 1.47 and 0.4028. Moreover, the “composite ISG score” value in test [3] was “reduced the composite ISG score”.
